# Source: patent US10240124B2, “Cell culture substrate comprising a laminin and a cadherin” (BioLamina AB, priority 2011, dated 2019)
# Columns and labels:
# hES cells [1] = experiment: Expression of pluripotency and differentiation markers (RT-PCR, FACS, immunofluorescence); format: cell-based, human; conditions: compared with cells on Matrigel passed as small clumps
# Method: For immunofluorescence studies, ES cells were cultured and fixed in 8-well slide chambers (BD Biosciences) or 96-well plate wells by 4% paraformaldehyde, permeabilized by 0.1% Triton-X and blocked by 10% bovine fetal serum (GIBCO Invitrogen Corporation) in phosphate-saline buffer (PBS) containing 0.1% Tween-20 (Sigma-Aldrich, St. Louis, http://www.sigmaaldrich.com) for one hour. Incubation with primary antibody was performed for 1.5 hours at room temperature. Incubation with secondary antibody and 4,6-diamidino-2-phenylindole (DAPI, Molecular Probes) was performed for 40 minutes. Between incubations, the specimens were washed with 0.1% Tween-20 in PBS buffer three to five times. Specimens were preserved in a fluorescence mounting medium (Dako, Glostrup, Denmark, http://www.dako.com), and observed under a fluorescence microscope (Leica, Heerbrugg, Switzerland, http://www.leica.com).
# Total RNA was isolated using Absolutely RNA Microprep Kit (Stratagene, La Jolla Calif., www.stratagene.com) according to the manufacturer's instructions. cDNA was synthesized using 0.2 μg of total RNA in 20 μl reaction mixture, containing oligo(dT)12-18 primers and Superscript II reverse transcriptase (GIBCO Invitrogen Corporation), according to the manufacturer's instructions. […] All data was analyzed with 7300 System SDS Software v 1.4. […]
# [2] = tested on: human pluripotent cells (HS181, HS401, H1, ChiPSW, CutB1.2); experiment: Long-term self-renewal culture of hES and iPS cells on LN-521 (Example 2); format: cell-based; conditions: for passages of proliferation on LN-521: O3 medium
# hES cells [3] = experiment: Cell adhesion assay, 1 hour (Example 2); format: cell-based, human; conditions: compared with Matrigel or LN-111, not shown
# Method: Tissue cell culture plates were coated overnight at 4° C. with sterile solutions of the ECM proteins, such as human recombinant LN-521, all at a concentration of 30 μg/ml (5 μg/cm^2). Control plates were coated with Matrigel according to the STEMCELL Technologies' instructions. Prior to use, dishes were pre-warmed in an incubator for one hour after which prewarmed O3 medium was added without additional washing of the dish. After applying a fresh LN-521 solution to a new dish, the remaining LN-521 solution could be used at least once more. All the adhesion, survival, and inhibition of survival experiments were carried out using fresh coating materials.
# (§1) Briefly, 96-well plates were coated by extracellular matrix proteins as described above and blocked by O3 medium containing bovine serum albumin. The ES cells were plated at cell density of 50,000 cells/cm^2 onto extracellular matrix-coated plates and left to adhere for 1 hour in a cell incubator. After that the plates were washed 3 times with the medium to remove the non-adherent cells, and then the adherent cells were fixed for 20 minutes by 5% glutaraldehyde, stained by 0.1% Crystal Violet. (Kebo Lab, Spanga, Sweden, http://www.kebolab.se). After one hour and 3 washes with water, Crystal Violet was extracted with 10% acetic acid and quantified by measuring optical density at 570 nm. All the experiments were performed in quadruplicate.
# hES cells [4] = experiment: Cell survival assay, 24 hours (Example 2); format: cell-based, human
# Method: as §1
# The survival assay was performed as described for the cell adhesion assay above, except that the cells were left in the cell incubator for 24 hours. For inhibition of survival assay, the cells were kept in a medium with function blocking antibodies at the concentrations recommended by the manufacturer or pathway inhibitors at concentrations indicated in the text for 30 minutes, and then plated on the coated dishes. All the experiments were performed in quadruplicate.
# Pluripotent hES cells express α1, α5, β1, β2 and γ1 laminin chains. To compare the adhesion and clonal survival of hES cells plated from single cell suspension to different coating substrata, hES cells growing as monolayers on LN-511 or as clusters on a feeder layer were trypsinized into single cell suspension in O3 medium and plated on cell culture dishes coated with Matrigel, LN-111, LN-511, LN-521 or a mixture of LN-511 and LN-521, in the absence or presence of a ROCK inhibitor (Y-27632) and analyzed after 24 hours.
# hES cells [5] = experiment: In vivo imaging and migration assay; format: cell-based, human
# Method: 24-well plates were coated by extracellular matrix proteins and blocked by O3 medium containing bovine serum albumin. The ES cells were plated at cell density of 30,000-40,000 cells/cm^2 onto extracellular matrix-coated plates and left to adhere for half an hour in a cell incubator. After that, the plate was transferred into high content imaging system Operetta (PerkinElmer) equipped with environmental control unit, which allowed to keep 37° C., 5% CO2. For two movies that were made, the brightfield images were taken once in 15 minutes during 24 hours after plating using Harmony software (PerkinElmer), exported, and analyzed using ImageJ software (NIH, the US). For migration assay the images were taken every seven minutes during 18 hours after plating. Images acquired between the fifth and seventh hours after plating were analyzed using MTrackJ plug-in (University Medical Center, Rotterdam, The Netherlands). 100 attached cells on each coating were traced and mean distances from the current to the previous point of the track were calculated. Error bars show standard error of the mean s.e.m. (n=100).
substance,measurement,setting,value
"LN-521: protein formed by joining α5, β2 and γ1 laminin chains; human recombinant, produced in HEK293 cells","expression levels of pluripotency markers Oct4, Nanog and SSEA4",hES cells [1],stable expression levels
same,passages cultured on LN-521,"[2]; ChiPSW iPS cells, mTeSR1",3 passages
same,passages cultured on LN-521,"[2]; CutB1.2 iPS cells, mTeSR1",5 passages
same,passages of proliferation on LN-521,"[2]; H1 cells, 6 months",≥ 15 passages
same,passages cultured on LN-521,"[2]; H1 cells, TeSR2, xeno-free, 5 months",12 passages
same,passages of proliferation on LN-521,"[2]; HS181 cells, 9 months",at least 24 passages
same,passages of proliferation on LN-521,"[2]; HS401 cells, 2 months",≥ 5 passages
same,passages cultured on LN-521,"[2]; HS401 cells, TeSR2, xeno-free, 1.5 months",4 passages
same,spreading of the cells after one hour,hES cells [3],clearly better
same,survival of Y-27632 treated human ES cells compared with Matrigel,"hES cells [4]; 40,000 cells per 1 cm^2, 10 μM Y-27632",survived better
same,survival after 24 hours relative to LN-511,hES cells [4]; O3 medium,three times higher
same,survival after 24 hours relative to Matrigel,hES cells [4]; O3 medium,approximately 20 times
same,survival of hES cells 24 hours after plating from single cell suspension,"hES cells [4]; O3 medium, absence of ROCK inhibitor",did so as single cells
same,survival relative to Matrigel without exogenous bFGF,hES cells [4]; exogenous bFGF removed from the O3 medium,20 times
same,survival 24 hours after plating in medium lacking all growth factors of the TeSR1 formulation,"hES cells [4]; no bFGF, LiCl, GABA, pipecolic acid, TGFβ",survived
same,cell migration by imaging compared with Matrigel,hES cells [5]; 24 hours imaging,much faster
same,motility of hES cells compared with other coatings,"hES cells [5]; between the fifth and seventh hours after plating, FIG. 14",higher than that of the cells on other coatings
